Results as given in US6737383B1, “Herbicidal oxadiazolidines” (priority 1999, dated 2004).

How the values were obtained:
giant foxtail = assay: Test B pre/postemergence giant foxtail; format: in vivo, Setaria faberii
How it was run: (§1)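 Herbicidal effect was estimated by eye on a ten-point control scale after plants spent twelve to sixteen days in a greenhouse following soil or foliar treatment. Foliar sprays targeted plants at one to four leaves; all doses were formulated in a non-phytotoxic solvent with surfactant.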

smallflower flatsedge = assay: Test B flood test smallflower flatsedge; format: in vivo, Cyperus difformis
How it was run: (§2)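 Read-out is a visual response score from 0 (no effect) to 10 (complete control), assigned by comparison with untreated controls. Treatment was applied at the 2-leaf stage, and plants stayed in the greenhouse for twelve to sixteen days before scoring.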

wild oat = assay: Test B pre/postemergence wild oat; format: in vivo, Avena fatua
How it was run: as §1

morningglory = assay: Test B pre/postemergence morningglory; format: in vivo, Ipomoea hederacea
How it was run: as §1

cocklebur = assay: Test B pre/postemergence cocklebur; format: in vivo, Xanthium strumarium
How it was run: as §1

sugar beet = assay: Test B pre/postemergence sugar beet; format: in vivo, Beta vulgaris
How it was run: as §1

soybean = assay: Test B pre/postemergence soybean; format: in vivo, Glycine max
How it was run: as §1

rape = assay: Test B pre/postemergence rape; format: in vivo, Brassica napus
How it was run: as §1

corn = assay: Test B pre/postemergence corn; format: in vivo, Zea mays
How it was run: as §1

blackgrass = assay: Test B pre/postemergence blackgrass; format: in vivo, Alopecurus myosuroides
How it was run: as §1

rice = assay: Test B flood test rice; format: in vivo, Oryza sativa
How it was run: as §2

bedstraw = assay: Test B pre/postemergence bedstraw; format: in vivo, Galium aparine
How it was run: as §1

velvetleaf = assay: Test B pre/postemergence velvetleaf; format: in vivo, Abutilon theophrasti
How it was run: as §1

pigweed = assay: Test B pre/postemergence pigweed; format: in vivo, Amaranthus retroflexus
How it was run: as §1

wheat = assay: Test B pre/postemergence wheat; format: in vivo, Triticum aestivum
How it was run: as §1

surinam grass = assay: Test B pre/postemergence surinam grass; format: in vivo, Brachiaria decumbens
How it was run: as §1

[1] = Postemergence, Rate 125 g/ha, scale of 0 to 10 where 0 is no effect and 10 is complete control
[2] = Preemergence, Rate 62 g/ha, scale 0 to 10 (0 no effect, 10 complete control)
[3] = Preemergence, Rate 125 g/ha, 0 is no effect, 10 is complete control
[4] = Preemergence, Rate 250 g/ha, scale 0 to 10, 0 is no effect, 10 is complete control
[5] = Preemergence, Rate 500 g/ha, scale 0 to 10 (0 no effect, 10 complete control)
[6] = Rate 62 g/ha, Postemergence, scale of 0 to 10 where 0 is no effect and 10 is complete control
[7] = Rate 250 g/ha, Postemergence, scale 0 to 10, 0 is no effect, 10 is complete control
[8] = Rate 500 g/ha, Postemergence, scale 0 to 10
[9] = Postemergence (flood test species), Rate 125 g/ha, scale of 0 to 10 where 0 is no effect and 10 is complete control
[10] = Rate 250 g/ha, Postemergence (flood test), scale 0 to 10, 0 is no effect, 10 is complete control
[11] = Rate 500 g/ha, listed under Postemergence (flood test species), scale 0 to 10

## CCOC(=O)Cn1c(=O)on(C(=O)N(c2ccc(F)cc2)C(C)C)c1=O [Compound 128]
Giant foxtail; [1]
  Giant foxtail plant response rating: 0
Giant foxtail; [2]
  Giant foxtail plant response rating: 0
Giant foxtail; [3]
  Giant foxtail plant response rating (0 to 10 scale): 0
Giant foxtail; [4]
  Giant foxtail plant response rating: 0
Giant foxtail; [5]
  Giant foxtail plant response rating: 8
Giant foxtail; [6]
  Giant foxtail plant response rating: 0
Giant foxtail; [7]
  Plant response rating, Giant foxtail: 0
Giant foxtail; [8]
  Giant foxtail plant response rating: 0
Smallflower flatsedge; [9]
  S. Flatsedge plant response rating: 0
Smallflower flatsedge; [10]
  Plant response rating, S. Flatsedge: 0
Smallflower flatsedge; [11]
  S. Flatsedge plant response rating: 0
Wild oat; [1]
  Wild oats plant response rating: 0
Wild oat; [2]
  Wild oats plant response rating: 0
Wild oat; [3]
  Wild oats plant response rating (0 to 10 scale): 0
Wild oat; [4]
  Wild oats plant response rating: 0
Wild oat; [5]
  Wild oats plant response rating: 0
Wild oat; [6]
  Wild oats plant response rating: 0
Wild oat; [7]
  Plant response rating, Wild oats: 0
Wild oat; [8]
  Wild oats plant response rating: 0
morningglory; [1]
  Morningglory plant response rating: 0
morningglory; [2]
  Morningglory plant response rating: 0
morningglory; [3]
  Morningglory plant response rating (0 to 10 scale): 0
morningglory; [4]
  Morningglory plant response rating: 0
morningglory; [5]
  Morningglory plant response rating: 0
morningglory; [6]
  Morningglory plant response rating: 0
morningglory; [7]
  Plant response rating, Morningglory: 0
morningglory; [8]
  Morningglory plant response rating: 0
cocklebur; [1]
  Cocklebur plant response rating: 0
cocklebur; [2]
  Cocklebur plant response rating: 0
cocklebur; [3]
  Cocklebur plant response rating (0 to 10 scale): 0
cocklebur; [4]
  Cocklebur plant response rating: 0
cocklebur; [5]
  Cocklebur plant response rating: 0
cocklebur; [6]
  Cocklebur plant response rating: 0
cocklebur; [7]
  Plant response rating, Cocklebur: 0
cocklebur; [8]
  Cocklebur plant response rating: 0
Sugar beet; [1]
  Sugarbeets plant response rating: 0
Sugar beet; [2]
  Sugarbeets plant response rating: 0
Sugar beet; [3]
  Sugarbeets plant response rating (0 to 10 scale): 0
Sugar beet; [4]
  Sugarbeets plant response rating: 0
Sugar beet; [5]
  Sugarbeets plant response rating: 0
Sugar beet; [6]
  Sugarbeets plant response rating: 0
Sugar beet; [7]
  Plant response rating, Sugarbeets: 0
Sugar beet; [8]
  Sugarbeets plant response rating: 0
soybean; [1]
  Soybean plant response rating: 0
soybean; [2]
  Soybean plant response rating: 0
soybean; [3]
  Soybean plant response rating (0 to 10 scale): 0
soybean; [4]
  Soybean plant response rating: 0
soybean; [5]
  Soybean plant response rating: 0
soybean; [6]
  Soybean plant response rating: 0
soybean; [7]
  Plant response rating, Soybean: 0
soybean; [8]
  Soybean plant response rating: 0
rape; [1]
  Rape plant response rating: 0
rape; [2]
  Rape plant response rating: 0
rape; [3]
  Rape plant response rating (0 to 10 scale): 0
rape; [4]
  Rape plant response rating: 0
rape; [5]
  Rape plant response rating: 0
rape; [6]
  Rape plant response rating: 0
rape; [7]
  Plant response rating, Rape: 0
rape; [8]
  Rape plant response rating: 0
corn; [1]
  Corn plant response rating: 0
corn; [2]
  Corn plant response rating: 0
corn; [3]
  Corn plant response rating (0 to 10 scale): 0
corn; [4]
  Corn plant response rating: 0
corn; [5]
  Corn plant response rating: 0
corn; [6]
  Corn plant response rating: 0
corn; [7]
  Plant response rating, Corn: 0
corn; [8]
  Corn plant response rating: 0
blackgrass; [1]
  Blackgrass plant response rating: 0
blackgrass; [2]
  Blackgrass plant response rating: 0
blackgrass; [3]
  Blackgrass plant response rating (0 to 10 scale): 0
blackgrass; [4]
  Blackgrass plant response rating: 0
blackgrass; [5]
  Blackgrass plant response rating: 2
blackgrass; [6]
  Blackgrass plant response rating: 0
blackgrass; [7]
  Plant response rating, Blackgrass: 0
blackgrass; [8]
  Blackgrass plant response rating: 0
rice; [9]
  Rice plant response rating: 0
rice; [10]
  Plant response rating, Rice: 0
rice; [11]
  Rice plant response rating: 0
bedstraw; [1]
  Bedstraw plant response rating: 0
bedstraw; [2]
  Bedstraw plant response rating: 0
bedstraw; [3]
  Bedstraw plant response rating (0 to 10 scale): 0
bedstraw; [4]
  Bedstraw plant response rating: 0
bedstraw; [5]
  Bedstraw plant response rating: 0
bedstraw; [6]
  Bedstraw plant response rating: 0
bedstraw; [7]
  Plant response rating, Bedstraw: 0
bedstraw; Rate 500 g/ha, Postemergence, scale 0 to 10, 0 no effect, 10 complete control
  Bedstraw plant response rating: 0
velvetleaf; [1]
  Velvetleaf plant response rating: 0
velvetleaf; [2]
  Velvetleaf plant response rating: 0
velvetleaf; [3]
  Velvetleaf plant response rating (0 to 10 scale): 0
velvetleaf; [4]
  Velvetleaf plant response rating: 0
velvetleaf; [5]
  Velvetleaf plant response rating: 0
velvetleaf; [6]
  Velvetleaf plant response rating: 0
velvetleaf; [7]
  Plant response rating, Velvetleaf: 0
velvetleaf; [8]
  Velvetleaf plant response rating: 0
pigweed; [1]
  Redroot pigweed plant response rating: 0
pigweed; [2]
  Redroot pigweed plant response rating: 0
pigweed; [3]
  Redroot pigweed plant response rating (0 to 10 scale): 0
pigweed; [4]
  Redroot pigweed plant response rating: 0
pigweed; [5]
  Redroot pigweed plant response rating: 0
pigweed; [6]
  Redroot pigweed plant response rating: 0
pigweed; [7]
  Plant response rating, Redroot pigweed: 0
pigweed; [8]
  Redroot pigweed plant response rating: 0
wheat; [1]
  Wheat plant response rating: 0
wheat; [2]
  Wheat plant response rating: 0
wheat; [3]
  Wheat plant response rating (0 to 10 scale): 0
wheat; [4]
  Wheat plant response rating: 0
wheat; [5]
  Wheat plant response rating: 0
wheat; [6]
  Wheat plant response rating: 0
wheat; [7]
  Plant response rating, Wheat: 0
wheat; [8]
  Wheat plant response rating: 0
Surinam grass; [1]
  B. signalgrass plant response rating: 0
Surinam grass; [2]
  B. signalgrass plant response rating: 0
Surinam grass; [3]
  B. signalgrass plant response rating (0 to 10 scale): 0
Surinam grass; [4]
  B. signalgrass plant response rating: 0
Surinam grass; [5]
  B. signalgrass plant response rating: 0
Surinam grass; [6]
  B. signalgrass plant response rating: 0
Surinam grass; [7]
  Plant response rating, B. signalgrass: 0
Surinam grass; Rate 500 g/ha, Postemergence, scale of 0 to 10 where 0 is no effect and 10 is complete control
  B. signalgrass plant response rating: 0
